Measured values reported in PubChem BioAssay AID1117287 (Broad Institute, 2014).
The source made the active and inactive calls.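 Rule for the calls: active = inhibitor whose half-maximal potency stays within twice the top tested dose in every replicate test; inconclusive = mixed calls across tests, weak flat response, or poor curve fit; inactive = all tests inactive, including rising signal.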

Target: Endoplasmic reticulum aminopeptidase 1 (Homo sapiens) (UniProt Q9NZ08)
Experiment: ERAP1 aminopeptidase inhibitors, dose response, biochemical, fluorescence, dry powder, set 2 (AID 1117287)
Details: ERAP1, Leu-AMC fluorescence, 60 min

Endoplasmic reticulum aminopeptidase 1 (Homo sapiens), sequence (Q9NZ08 whole entry, looked up): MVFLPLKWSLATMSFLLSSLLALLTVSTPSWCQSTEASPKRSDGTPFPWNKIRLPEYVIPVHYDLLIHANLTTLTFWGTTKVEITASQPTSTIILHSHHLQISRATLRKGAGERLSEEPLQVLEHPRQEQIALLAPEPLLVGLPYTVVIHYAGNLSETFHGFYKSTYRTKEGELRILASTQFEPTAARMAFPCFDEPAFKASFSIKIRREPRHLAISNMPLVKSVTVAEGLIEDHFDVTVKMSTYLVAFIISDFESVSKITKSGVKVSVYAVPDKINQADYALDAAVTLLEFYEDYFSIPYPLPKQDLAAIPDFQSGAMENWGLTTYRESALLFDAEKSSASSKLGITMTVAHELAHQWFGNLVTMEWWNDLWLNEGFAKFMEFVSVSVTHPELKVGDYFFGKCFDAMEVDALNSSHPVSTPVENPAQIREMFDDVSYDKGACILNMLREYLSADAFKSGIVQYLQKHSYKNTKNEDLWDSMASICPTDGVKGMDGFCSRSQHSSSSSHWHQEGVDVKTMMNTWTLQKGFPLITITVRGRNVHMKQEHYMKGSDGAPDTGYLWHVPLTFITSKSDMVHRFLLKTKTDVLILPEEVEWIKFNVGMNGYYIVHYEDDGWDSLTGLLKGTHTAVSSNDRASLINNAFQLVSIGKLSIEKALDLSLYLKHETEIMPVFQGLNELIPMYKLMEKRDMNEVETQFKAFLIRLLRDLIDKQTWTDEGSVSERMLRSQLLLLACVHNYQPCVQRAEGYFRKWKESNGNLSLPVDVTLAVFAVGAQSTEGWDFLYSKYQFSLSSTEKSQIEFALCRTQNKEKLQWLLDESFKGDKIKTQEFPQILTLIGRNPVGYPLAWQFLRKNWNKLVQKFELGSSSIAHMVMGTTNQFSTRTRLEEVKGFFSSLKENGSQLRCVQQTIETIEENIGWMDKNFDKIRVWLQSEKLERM

| activity change, negative = inhibition (at 50 µM (top of the series)) | Compound | also measured |
| --- | --- | --- |
| inactive | COc1ccc(C(=O)O)cc1S(=O)(=O)Nc1cc(C(F)(F)F)ccc1N1CCCCC1 | – |
| inactive | Cc1ccc(S(=O)(=O)Nc2cc(C(F)(F)F)ccc2N2CCCCC2)cc1C(=O)O | – |
| – | COc1ccc(C2=NN(c3ccc(C(=O)O)cc3)C(c3ccc(OC)c(OC)c3)C2)cc1 (stereo not drawn) | activity change, negative = inhibition (at 26 µM (top of the series), above what the read-out allows, likely interference): inactive |
| inactive | Cc1ccc(C(=O)O)cc1S(=O)(=O)Nc1cc(C(F)(F)F)ccc1N1CCCCC1 | – |
| inactive | COc1ccc(C(=O)O)cc1S(=O)(=O)Nc1cc(C(F)(F)F)ccc1N(C)C | – |
| inactive | COc1ccc(C(=O)O)cc1S(=O)(=O)Nc1cc(C(F)(F)F)ccc1N1CCN(C(C)=O)CC1 | – |
| inactive | O=C(O)c1cc(F)cc(S(=O)(=O)Nc2cc(C(F)(F)F)ccc2N2CCCCC2)c1 | – |
| – | COc1ccc(C(=O)O)cc1S(=O)(=O)Nc1ccc(N2CCCCC2)cc1C(F)(F)F | AC50: > 100 µM (inactive) |
| inactive | COc1ccc(C(=O)Nc2cccc(C(F)(F)F)c2)cc1S(=O)(=O)O | – |
| inactive | COc1ccc(C(=O)O)cc1S(=O)(=O)Nc1cc(C(F)(F)F)ccc1N1CCOCC1 | – |
| – | COc1ccc(C(=O)O)cc1S(=O)(=O)Nc1cccc(N2CCCCC2)c1C(F)(F)F | AC50: > 100 µM (inactive) |
| – | COc1ccc(C(=O)O)cc1S(=O)(=O)N1CCN(c2ccc(C(F)(F)F)cc2N)CC1 | AC50: > 100 µM (inactive) |
| – | O=S(=O)(O)c1ccc(N2N=C(c3ccccc3)CC2c2ccccc2)cc1 (stereo not drawn) | activity change, negative = inhibition (at 26 µM (top of the series)): inactive |
